Reference: US20180362598A1 (priority 2016, published 2018)

tested on: insect gut protease (X condition); assay type: biochemical

First: LRLFVGS
Second: LKLFVGS
The “% of Max Slope X” value of the first is lower: 74% for the first, 98% for the second.

Compared with LFVALKGS, IFVALKGS is lower in “% of Max Slope X” value: 92% for the first, 69% for the second.

In the case of LFVRLRGS, the “% of Max Slope X” value is reported as 94%.
